# Laboratory results as given in patent US5665779A, “Pharmaceutical composition for inhibiting the infection with AIDS virus” (Zaidan, Hojin, Biseibutsu, Kagaku, Kenkyu, Kai, priority 1991, dated 1997).
# Where two headings read alike, the source gives them in different places.
# Tests used:
# [1] = test system: HIV (HTLV-IIIB strain) in MT-4 cells (human T-cell line); experiment: Inhibition of infection of human T-cells (MT-4) with HIV, HIV antigen-positive cells by indirect immunofluorescence; assay type: cell-based; details: for EC50: MT-4 cells, read-out: 50% Effective concentration (ED50) against HIV
# Method: Effects of D-β-lysylmethanediamine inhibitory to infection of human T-cells with HIV were examined in a similar manner to the assay methods described in the "Proc. Natl. Acad, Sci. USA," 80, 6061-6065 (1983); "J. Antibiot.", 40, 1077-1078, (1987); "J. Antibiot.", 42, 344-346 (1989) and "J. Antibiot." 44, 1228-1236 (1991).
# 1×10^5 Cells/ml of MT-4 cells (human T-cell line) in phosphate buffered saline were seeded into Costar 48-well plates in an amount of 0.5 ml/well. Each well was added with 0.05 ml of a solution of the test compound, namely D-β-lysylmethanediamine (dissolved at different concentrations of 3, 10, 30 and 100 μg per ml in phosphate buffered saline). After incubation for 2 hours at 37° C. under 5% CO2, the MT-4 cells were infected with 0.05 ml of HIV (HTLV-IIIB strain) as added in an amount of multiplicity of infection (m.o.i) of 0.025 to 0.05 in each well. The plates were incubated for 4 days at 37° C. under 5% CO2 so that the T-cells were treated in the presence of the test compound at the different concentrations.
# Portions of the incubated cultures were taken and the MT-4 cells were smeared onto slide glasses, dried and fixed with acetone. The presence of the HIV antigen-positive MT-4 cells was detected by the indirect immunofluoroescent assay [Y. Hinuma et al., "Proc. Natl. Acad. Sci. USA," 78, 6476-6480, (1981) and Y. Takeuchi et al., "Gann.", 78, 11-15 (1987)]. To this end, the cell smears, that is, the acetone-fixed cell smears were treated at 37° C. for 30 minutes with such serum of AIDS patient at a dilution of 1:10 in phosphate buffered saline, which was employed as the first antibody. After washing subsequently with phosphate buffered saline, the MT-4 cells were treated at 37° C. for 30 minutes with fluorescent isothiocyanate-conjugated rabbit anti-human IgG serum (Cappel Laboratories, Cocharanville, Pa., USA), which was employed as the second antibody. After the cell smears were then washed with phosphate buffered saline and covered with a cover glass, the MT-4 cells were examined under a fluorescence microscope. Percentages of the number of the viral antigen-positive MT-4 cells (namely, immunofluorescent cells where the HIV-associated antigens were present and expressed) in total cells were calculated.
# For the control tests of estimating the number of the total cells under test, the above test procedures were repeated without addition of D-β-lysylmethanediamine.
# In order to evaluate the activity of D-β-lysylmethanediamine to inhibit the infection of human T-cells, namely the MT-4 cells with HIV, calculation was made of the percentages (T/C, %) of the number (T) of the HIV antigen-positive cells as measured in the above-mentioned tests where the incubation of MT-4 cells was effected in the presence of the test compound, against the number (C) of the HIV antigen-positive cells as measured in the above-mentioned control tests where the incubation of MT-4 cells was effected without the addition of the test compound. The results of such calculation of the T/C values (%) are shown in Table 1 in term of rate (%) of presence or occurrence of the HIV antigen-positive cells.
# [2] = Hygroscopicity; assay type: physicochemical; details: colorless powdery substance, Referential Example 1
# [3] = colorless powder; reported earlier; cited from earlier work
# [4] = test system: MT-4 cells; experiment: Cytotoxicity to MT-4 cells in the absence of HIV; assay type: cell-based, human; details: even at a concentration of 100 μg/ml
# Method: Furthermore, cytotoxicity of D-β-lysylmethanediamine to the MT-4 cells was estimated. This was done by incubating the MT-4 cells at varying concentrations of D-β-lysylmethanediamine added and in the absence of HIV but in the same manner of incubation and under the same conditions of incubation of MT-4 cells as those employed in the above-mentioned test procedures of assaying the activity of D-β-lysylmethanediamine to inhibit the infection of T-cells with HIV. That the cytotoxicity was not observed is represented by the symbol "-" in Table 1 below.
# [5] = target: T1, reverse transcriptase of HIV (HIV-1 M:B_HXB2R, UniProt P04585); experiment: Activity inhibitory to reverse transcriptase of HIV; assay type: biochemical; details: 100 μg/ml
# T1 construct: preparation not described
# Excerpt: Thus, it is apparent that D-β-lysylmethanediamine can inhibit strongly the infection of human T-cells with HIV by any mechanism yet unknown.
# [6] = target: T2, protease of HIV (HIV-1 M:B_HXB2R, UniProt P04585); experiment: Activity inhibitory to protease of HIV; assay type: biochemical; details: 100 μg/ml
# T2 construct: preparation not described
# [7] = Acute toxicity in mice, intravenous; details: mouse, in vivo, read-out: Dosage tolerated without death (acute toxicity)
# Method: D-β-Lysylmethanediamine used according to this invention is characterised by its low toxicity to mammalian animals. For instance, in the tests of estimating acute toxicity of this compound where mice were intravenously administered with D-β-lysylmethanediamine, the mice having received administration of D-β-lysylmethanediamine could tolerate a dosage of 250 mg/kg of D-β-lysylmethanediamine without involving their death.
# [8] = Solubility in water; assay type: physicochemical; details: in words
# [9] = Extractability with organic solvents; assay type: physicochemical; details: from liquid portion of the culture
# [10] = test system: Gram-positive bacteria; details: J. Antibiotics 39(3), 476 (1986); Kokai Sho-62-114947; cited from earlier work
# [11] = Human immunodeficiency virus 1, IIIB, MT4, 96 h
SMILES,"EC50 [1, 11]","Effect of inhibiting the infection of human T-cells with HIV compared with D-β-lysylmethanediamine (in words) ([1]; relative to D-β-lysylmethanediamine, from ED50)",Hygroscopicity [2],Hygroscopicity [3],"activity at 3 µg/mL ([1]; Human immunodeficiency virus 1, IIIB, MT4, 96 h, 3 μg/ml, T/C % vs control without test compound, 4 days, 37° C., read-out: Rate (%) of presence of HIV antigen-positive cells)","activity at 10 µg/mL ([1]; Human immunodeficiency virus 1, IIIB, MT4, 96 h, 10 μg/ml, T/C % vs control without test compound, 4 days, 37° C., read-out: Rate (%) of presence of HIV antigen-positive cells)","activity at 30 µg/mL ([1]; Human immunodeficiency virus 1, IIIB, MT4, 96 h, 30 μg/ml, T/C % vs control without test compound, 4 days, 37° C., read-out: Rate (%) of presence of HIV antigen-positive cells)","activity at 100 µg/mL ([1]; Human immunodeficiency virus 1, IIIB, MT4, 96 h, 100 μg/ml, T/C % vs control without test compound, 4 days, 37° C., read-out: Rate (%) of presence of HIV antigen-positive cells)",Reduction of the number of HIV antigen-positive cells (in words) ([1]; concentrations of no more than 100 μg/ml),Cytotoxicity (in words) [4],Activity inhibitory to reverse transcriptase of HIV [5],Activity inhibitory to protease of HIV [6],MTD [7],Solubility in water [8],"Extraction with butanol, butyl acetate, chloroform and other organic solvents [9]",Antibacterial activity against Gram-positive bacteria [10]
"OC[C@@H]1CC[C@H](n2cnc3c(O)ncnc32)O1 [DDI, 2',3'-dideoxyinosine, reference compound]",0.46 µg/mL,to the same extent,–,–,–,–,–,–,–,–,–,–,–,–,–,–
NCCC[C@@H](N)CC(=O)NCN [D-β-lysylmethanediamine hemicarbonate],–,–,hygroscopic,hygroscopic,–,–,–,–,–,–,–,–,–,–,–,–
NCCC[C@@H](N)CC(=O)NCN [D-β-lysylmethanediamine],0.62 µg/mL,–,–,–,30%,15%,10%,5%,reduce significantly,no cytotoxicity,neither any activity inhibitory to reverse transcriptase of HIV,nor any activity inhibitory to protease of HIV,≥ 250 mg/kg,well soluble in water,substantially connot be extracted,weak antibacterial activity
